Patent US20070099857A1, “Methods and means for inhibiting fever” (priority 2003, published 2007)

Experiments:
[1] = PGE2-induced febrile response after intracerebroventricular injection, telemetric body temperature; format: in vivo, mice; conditions: 4 nmol PGE2 intracerebroventricular
Protocol: We confirmed the absence of overt physiological signaling defects by ensuring that PGE2-evoked (the missing product in mPGESl1^−/− mice that is generated following LPS challenge) pyresis was indeed intact in mPGES1^−/− mice. We performed intracerebroventricular injections of PGE2 (4 nmol in 2 μl artificial cerebrospinal fluid) and then monitored using telemetry the body temperature in awake and unrestrained animals. […] Thus, a pronounced temperature increase was seen almost immediately after the PGE2 injection. It reached its peak after 30 minutes and lasted for about 1.5 hour. To determine that the elicited febrile response was due to specific activation of PGE2 receptors and not represented an unspecific response, we injected the same amount of PGE2 into EP3 receptor^−/− mice as we had injected into mPGES-1^−/− mice.
Telemetric temperature recordings: One week prior to each experiment, a temperature transmitter (Data Science International) was implanted into the peritoneal cavity of each mouse. Recordings were made via a receiver located beneath the cage and the data were fed into a computer. Recordings started at least one hour prior to surgery or injection, and were obtained every second minute throughout the entire session.
Intracerebroventricular injections of PGE2: Mice were mounted in a stereotaxic frame under anesthesia with 1% isoflurane in a 30/70% mixture of O2/N2, and kept at 37° C. through a feedback controlled heating pad. A drill hole was made in the skull through which a 29 gauge (o.d.) needle connected by a silicon tube to a Hamilton syringe was inserted into the lateral ventricle (0.5 mm posterior to Bregma, 1 mm lateral to midline, and 2.5 mm vertical to the skull surface), and 4 nmol PGE2 in 2 μl artificial cerebrospinal fluid was injected during 1 min. Control injection consisted of artificial cerebrospinal fluid. Two minutes after the end of the injection, the needle was removed, the skin sutured, and the gas anesthesia turned off. All animals were awake within 5 min after injection and were immediately returned to their home cage for resumed body temperature recordings.

mPGES-1 = biological target: T1, mPGES-1 (Homo sapiens, UniProt O14684); conditions: literature values (Thoren et al. 2000; Mancini et al. 2001; Quraishi et al. 2002); read-out: IC50 for inhibition of mPGES-1; cited from earlier work
T1 sequence (O14684 1-152): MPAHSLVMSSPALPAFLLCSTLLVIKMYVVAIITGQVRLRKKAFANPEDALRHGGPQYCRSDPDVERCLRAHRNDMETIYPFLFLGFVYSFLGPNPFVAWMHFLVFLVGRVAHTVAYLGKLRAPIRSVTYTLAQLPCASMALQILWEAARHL

Compound	duration of temperature increase [1]	time to peak of temperature increase after injection [1] [min]	febrile response ([1]; EP3 receptor−/− mice)	temperature elevation ([1]; mPGES+/+ mice)	febrile response ([1]; mPGES-1−/− mice)	IC50 (mPGES-1) [µM]
CCCCC[C@H](O)/C=C/[C@H]1[C@H](O)CC(=O)[C@@H]1C/C=C\CCCC(=O)O (relative stereo) [PGE2, 11α, 15(S)-dihydroxy-9-ketoprosta-5-cis-13-trans-dienoic acid]	about 1.5 hour	30	did not display any febrile response	rapid and pronounced temperature elevation	rapid and strong febrile response	–
CCCCCC=CCC=CC=CC=CC(SCC(NC(=O)CCC(N)C(=O)O)C(=O)NCC(=O)O)C(O)CCCC(=O)O [leukotriene C4, 5(S)-hydroxy-6(R)-S-glutathionyl-7,9-trans-11,14-cis-eicosa-tetraenoic acid]	–	–	–	–	–	5
